{"source": "patent US7838020B2", "about": "“Cosmetic or dermatological composition comprising an association between a compound of the N-acylaminoamide family and at least one matrix metalloproteinase inhibitor” (L'Oreal, priority 2001, dated 2010)", "key": {"[1]": {"target": "T1, human leukocyte elastase (ELH) (Homo sapiens, UniProt P08246)", "T1 sequence (P08246 30-267)": "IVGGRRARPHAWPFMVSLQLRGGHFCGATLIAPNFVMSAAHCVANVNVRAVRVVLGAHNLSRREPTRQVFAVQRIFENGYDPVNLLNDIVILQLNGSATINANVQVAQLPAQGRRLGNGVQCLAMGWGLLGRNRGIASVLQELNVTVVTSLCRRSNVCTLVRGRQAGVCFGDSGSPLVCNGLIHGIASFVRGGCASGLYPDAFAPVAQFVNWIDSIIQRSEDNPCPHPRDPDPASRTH", "experiment": "in vitro anti-elastasic activity, Me-OSAAPV-p-NA substrate, spectrophotometry", "format": "biochemical", "details": "even in a small amount (0.01% to 0.2%)", "protocol": "The anti-elastasic activity of compounds according to the invention is determined in vitro compared to the human leukocyte elastase (ELH).\nThe test is performed in the following way:\nA Me-OSAAPV-p-NA (méthyl-O-succinate alanine alanine proline valine-p-nitroaniline) substrate, onto which ELH (40 milli-units per ml) and 0.1% of the compound to be tested are applied, is left for incubating at 37° C. for 60 minutes.\nThereafter, the % inhibition of the control elastase activity is determined by spectrophotometry."}, "[2]": {"target": "T1, human leukocyte elastase (ELH)", "experiment": "ex vivo activity on fresh human skin cuts treated with ELH for 2 hours (Example 4)", "format": "cell-based", "details": "20° C.", "protocol": "(§1) The ex vivo activity of example 2 compound has been evaluated on surviving human skins treated by a human leukocyte elastase (ELH).\nThe test is performed the following way.\nFresh human skin cuts from two different donors are treated for 2 hours, at 20° C., by 20 μl of a buffer solution (pH 7.4) optionally comprising 10 μg/ml ELH and optionally 0.1% of the compound to be tested, optionally previously put in solution in ethanol.\n(§2) The elastic fibres are coloured in blue using catechin (+) and quantified morphometrically using a computer assisted image analysis. The average derma surface percentage occupied by elastic fibres is evaluated this way."}, "[3]": {"target": "T1, human leukocyte elastase (ELH)", "experiment": "ex vivo activity on surviving human skin fragments treated with ELH, 10 days culture (Example 5)", "format": "cell-based", "details": "0.5 μg ELH per ml; 5 μl of 0.2% compound in ethanol every two days; 10 days at 37° C.; control 7.4%, ELH alone 5.1%", "protocol": "as §1\nThe test is performed the following way:\nFragments of normal human skin from three different donors are deposited in inserts positioned in culture wells. Culture medium added with antibiotics is added in the bottom of the wells. A pass is performed through slow diffusion between the two compartments via a porous membrane (pore size: 12 μm).\nThe culture medium is renewed every three days.\nOn the skin fragments, optionally 0.5 μg ELH per ml culture medium are added.\n5 μl of the compound to be tested are also added every two days, previously put in solution at 0.2% by weight in ethanol.\nThe skins are kept surviving for 10 days at 37° C.\nas §2"}}}
{"smiles": "CC(=O)N(c1cccc(C(F)(F)F)c1)C(C(=O)NCC(=O)O)C(C)C", "note": "(stereo not shown) [Compound A, {2-[acetyl-(3-trifluoromethyl-phenyl)-amino]-3-méthyl-butyryl-amino}acetic acid]", "values": [{"measurement": "inhibition of the elastase activity (in words)", "setting": "[1]", "value": "strong inhibition"}, {"measurement": "% Surface occupied by elastic fibres", "setting": "[2]; Skin 1, 10 μg/ml ELH + 0.1% compound, control 12.7%, ELH alone 4.85%", "value": 13.95, "unit": "%"}, {"measurement": "% Surface occupied by elastic fibres", "setting": "[2]; Skin 2, 10 μg/ml ELH + 0.1% compound, control 15.25%, ELH alone 6.85%", "value": 11.85, "unit": "%"}, {"measurement": "% Surface occupied by elastic fibres", "setting": "[3]", "value": 7.1, "unit": "%"}]}
